For orientation: EC50 means the concentration needed to bring the measured effect to its halfway point.

Like-named read-outs stand apart in the source and are kept apart here.

This note sets out measurements from patent publication US10829473B2, “Modulators of the cystic fibrosis transmembrane conductance regulator protein and methods of use” (AbbVie Overseas S.Á.R.L., priority 2017, dated 2020).

In this experiment the target is T1, F508delCFTR (Homo sapiens, UniProt P13569, DEL508-508).
T1 construct: expressed in transfected cells; host or cells: CFBE41o- human lung derived epithelial cells (CFBE41o-F508delCFTR-HRP), doxycycline-inducible
Kind of experiment: Cell Surface Expression-Horse Radish Peroxidase (CSE-HRP) Assay.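 For EC50 (with co-corrector): co-corrector chromenyl benzoic acid corrector at 2 or 3 µM.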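 For Maximum % activity (without co-corrector): % of on-plate positive control chromenyl benzoic acid corrector at 2 or 3 µM.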 The class given is cell-based. As to conditions: for Maximum % activity (with co-corrector) / Emax: maximum at any tested concentration; for Emax: read-out: Maximum % activity (without co-corrector). A digest of the protocol: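 Corrector compounds were given as 8-point 3-fold series from 20 or 30 μM, with or without a 2 μM co-corrector, for 18-24 h at 33 °C. Surface HRP was read by luminol luminescence as % of positive control; variable-Hill-slope sigmoidal fitting gave EC50 from triplicate plates.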

The mark [1] stands for this setting: test compound alone, without co-corrector, read-out: EC50 (without co-corrector).
[2] abbreviates: with co-corrector, read-out: EC50 (with co-corrector).

T1 sequence (P13569 with tags, fused parts or gaps DEL508-508): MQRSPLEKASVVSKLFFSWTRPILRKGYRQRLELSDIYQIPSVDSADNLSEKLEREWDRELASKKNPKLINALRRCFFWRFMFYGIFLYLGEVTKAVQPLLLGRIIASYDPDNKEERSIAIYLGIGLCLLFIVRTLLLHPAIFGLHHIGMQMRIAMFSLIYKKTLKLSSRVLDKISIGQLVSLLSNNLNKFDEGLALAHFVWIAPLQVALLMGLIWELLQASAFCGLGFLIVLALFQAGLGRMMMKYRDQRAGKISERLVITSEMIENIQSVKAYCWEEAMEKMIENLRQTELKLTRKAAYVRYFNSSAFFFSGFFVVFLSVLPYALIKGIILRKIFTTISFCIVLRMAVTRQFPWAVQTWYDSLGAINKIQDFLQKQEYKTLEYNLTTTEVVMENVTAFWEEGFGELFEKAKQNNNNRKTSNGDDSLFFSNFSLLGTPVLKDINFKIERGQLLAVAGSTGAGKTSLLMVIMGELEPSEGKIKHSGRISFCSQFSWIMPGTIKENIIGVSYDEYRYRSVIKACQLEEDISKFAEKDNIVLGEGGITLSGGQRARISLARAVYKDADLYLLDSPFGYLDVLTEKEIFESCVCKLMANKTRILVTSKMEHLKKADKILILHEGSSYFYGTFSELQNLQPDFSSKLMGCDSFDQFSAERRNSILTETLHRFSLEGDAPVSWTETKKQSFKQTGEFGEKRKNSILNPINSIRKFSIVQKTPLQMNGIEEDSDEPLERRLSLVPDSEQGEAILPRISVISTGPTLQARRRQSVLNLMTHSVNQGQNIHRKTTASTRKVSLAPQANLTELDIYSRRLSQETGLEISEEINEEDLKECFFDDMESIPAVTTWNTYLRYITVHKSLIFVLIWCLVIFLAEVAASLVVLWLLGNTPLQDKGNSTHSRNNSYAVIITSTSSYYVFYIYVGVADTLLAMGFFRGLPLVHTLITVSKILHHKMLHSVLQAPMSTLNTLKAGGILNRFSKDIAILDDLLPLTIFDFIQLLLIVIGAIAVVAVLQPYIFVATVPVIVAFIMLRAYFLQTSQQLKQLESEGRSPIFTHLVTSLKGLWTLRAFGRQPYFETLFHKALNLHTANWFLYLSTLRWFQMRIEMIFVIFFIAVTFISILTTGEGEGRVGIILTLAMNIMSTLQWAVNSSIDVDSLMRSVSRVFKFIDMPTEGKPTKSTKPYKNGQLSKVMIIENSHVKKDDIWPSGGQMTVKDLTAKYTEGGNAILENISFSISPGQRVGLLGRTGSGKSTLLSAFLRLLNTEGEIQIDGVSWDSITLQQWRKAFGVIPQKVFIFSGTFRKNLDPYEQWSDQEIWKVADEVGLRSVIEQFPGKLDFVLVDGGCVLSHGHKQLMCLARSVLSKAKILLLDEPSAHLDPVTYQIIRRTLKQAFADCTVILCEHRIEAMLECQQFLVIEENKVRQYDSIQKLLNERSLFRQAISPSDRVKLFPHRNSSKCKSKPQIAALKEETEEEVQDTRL

On to `COc1c(Cl)cc(Cl)c(OC)c1C1(C(=O)NS(=O)(=O)c2cccc3ncccc23)CC1` [Example III-103, 1-(3,5-dichloro-2,6-dimethoxyphenyl)-N-(quinoline-5-sulfonyl)cyclopropane-1-carboxamide], for which the concentration for a half-maximal effect (EC50) is, setting by setting: under setting [1], 3 to 10 µM; under setting [2], less than 3 µM. Besides, the “Maximum % activity (with co-corrector)” value (with co-corrector) was “+++ (≥350)”. Moreover, for the setting “without co-corrector”, the Emax is more than 150%.

For `O=C(NS(=O)(=O)Cc1ccccc1)C1(c2ccc(Cl)cc2Cl)CC1` [Example III-104, 1-(2,4-dichlorophenyl)-N-(phenylmethanesulfonyl)cyclopropane-1-carboxamide], the EC50 is more than 10 µM under setting [1] and 3 to 10 µM under setting [2]. For the same compound, the “Maximum % activity (with co-corrector)” value (with co-corrector) was “++ (≥150 and <350)”. Further, the Emax (without co-corrector) was less than 50%.

As to `O=C(NS(=O)(=O)C(F)(F)F)C1(c2ccc(Cl)cc2Cl)CC1` [Example III-105, 1-(2,4-dichlorophenyl)-N-(trifluoromethanesulfonyl)cyclopropane-1-carboxamide], the EC50 is, setting by setting: under setting [1], more than 10 µM; under setting [2], more than 10 µM. The “Maximum % activity (with co-corrector)” value (with co-corrector) is “+ (<150)”. Moreover, the Emax (without co-corrector) is less than 50%.

For the compound `O=C(NS(=O)(=O)CC(F)(F)F)C1(c2ccc(Cl)cc2Cl)CC1` [Example III-106, 1-(2,4-dichlorophenyl)-N-(2,2,2-trifluoroethanesulfonyl)cyclopropane-1-carboxamide], the half-maximal effective concentration (EC50) is, setting by setting: under setting [1], more than 10 µM; under setting [2], more than 10 µM. The “Maximum % activity (with co-corrector)” value (with co-corrector) was “+ (<150)”. The Emax (without co-corrector) was less than 50%.

As to `CCCS(=O)(=O)NC(=O)C1(c2ccc(Cl)cc2Cl)CC1` [Example III-107, 1-(2,4-dichlorophenyl)-N-(propane-1-sulfonyl)cyclopropane-1-carboxamide], the concentration giving a half-maximal response (EC50) is more than 10 µM under setting [1] and more than 10 µM under setting [2]. Also, the “Maximum % activity (with co-corrector)” value (with co-corrector) was “+ (<150)”. In addition, the Emax (without co-corrector) is less than 50%.

`O=C(NS(=O)(=O)CCCCl)C1(c2ccc(Cl)cc2Cl)CC1` [Example III-108, N-(3-chloropropane-1-sulfonyl)-1-(2,4-dichlorophenyl)cyclopropane-1-carboxamide]: the half-maximal effective concentration (EC50) is more than 10 µM under setting [1] and 3 to 10 µM under setting [2]. For the setting “with co-corrector”, the “Maximum % activity (with co-corrector)” value was “++ (≥150 and <350)”. Also, the Emax (without co-corrector) was less than 50%.

For the compound `O=C(NS(=O)(=O)Cc1ccccc1)C1(c2cccc(Cl)c2)CC1` [Example III-109, 1-(3-chlorophenyl)-N-(phenylmethanesulfonyl)cyclopropane-1-carboxamide], the concentration for a half-maximal effect (EC50) is more than 10 µM under setting [1] and more than 10 µM under setting [2]. For the same compound, for the setting “with co-corrector”, the “Maximum % activity (with co-corrector)” value is “+ (<150)”. The Emax (without co-corrector) is less than 50%.

For the compound `Cc1ccc(C2(C(=O)NS(=O)(=O)Cc3ccccc3)CC2)cc1` [Example III-111, 1-(4-methylphenyl)-N-(phenylmethanesulfonyl)cyclopropane-1-carboxamide], the 50% effective concentration (EC50) reads like this: under setting [1], more than 10 µM; under setting [2], 3 to 10 µM. In addition, the “Maximum % activity (with co-corrector)” value (with co-corrector) was “++ (≥150 and <350)”. Besides, under “without co-corrector”, the Emax is less than 50%.

In the case of `O=C(NS(=O)(=O)Cc1ccccc1)C1(c2ccc(F)cc2)CC1` [Example III-112, 1-(4-fluorophenyl)-N-(phenylmethanesulfonyl)cyclopropane-1-carboxamide], the 50% effective concentration (EC50) was more than 10 µM under setting [1] and more than 10 µM under setting [2]. The “Maximum % activity (with co-corrector)” value (with co-corrector) is recorded as “+ (<150)”. The Emax (without co-corrector) was less than 50%.

As to `O=C(NS(=O)(=O)Cc1ccccc1)C1(c2ccccc2Cl)CC1` [Example III-113, 1-(2-chlorophenyl)-N-(phenylmethanesulfonyl)cyclopropane-1-carboxamide], the EC50 under setting [1] was more than 10 µM and the EC50 under setting [2] was 3 to 10 µM. The “Maximum % activity (with co-corrector)” value (with co-corrector) is “++ (≥150 and <350)”. Moreover, for the setting “without co-corrector”, the Emax was less than 50%.
